From patent US8975259B2, “Compositions and methods for inhibiting G protein signaling” (University of Rochester, priority 2007, dated 2015)

Assays:
[1] = target: Gβ1γ2 (UniProt P54311+P63212); set-up: made in house; host or cells: Sf9 insect cells (baculovirus; co-expressed with BirA and (His)6-Gαi1, from which βγ was eluted); conditions: Table 20, competition ELISA for SIGK binding; data from Bonacci et al. (2006); cited from earlier work
[2] = test system: opioid-induced antinociception in mice; conditions: M119 100 nmol i.c.v. with morphine i.c.v.; Bonacci et al., 2006; cited from earlier work
[3] = test system: GRK2 membrane recruitment in adult mouse cardiomyocytes; experiment: β-AR-mediated GRK2 membrane recruitment in isolated adult mouse cardiomyocytes; format: cell-based; conditions: result in words
Procedure: Thus, it was tested whether M119 could block GRK2 recruitment to membrane-bound Gβγ subunits upon agonist stimulation of β-AR in cardiomyocytes, similar to what had been observed in vitro with the peptide inhibitors described above. Indeed M119 reduced β-AR-mediated recruitment of GRK2 to membranes of isolated adult mouse cardiomyocytes, with a mild reduction of membrane associated GRK2 at baseline.

[4] = test system: primary human neutrophils; experiment: IL-8-induced chemotaxis of primary human neutrophils (Boyden chamber); format: cell-based; conditions: 10 μM compound, 10 nM IL-8; result in words
Procedure: (§1) Differentiated HL60 cells (200 k) were pretreated with 10 μM concentrations of the indicated compound, challenged with 250 nM fMLP, and assayed for chemotaxis in a Boyden chamber for 1 h at 37° C. […] Chemotaxis was quantified as above by subtracting out background cells (0-10 cells) in the absence of chemoattractant to obtain total transmigrated cells (−100 cells GM-CSF+vehicle) and represented as the percentage of GM-CSF-treated control cells. No statistically significant difference from control was seen by ANOVA. […] Primary human neutrophils were isolated from whole blood to ≧80% purity. […] Chemotaxis was quantified as above by subtracting out background cells to obtain total transmigrated cells and represented as the percentage of fMLP-treated control cells. […]
(§2) Chemotaxis was assayed using a Boyden chamber (Neuro Probe, Gaithersburg, Md.) using 3-μm polyvinylpyrrolidone-free polycarbonate filters (Neuro Probe). […] Chemotactic HL60 cells were scored by counting three microscope fields and subtracting the number of cells from fMLP wells as background. […] For all the small molecules, effects of the compounds on chemokinesis was analyzed by measuring chemotaxis in the presence of 250 nM fMLP in both the upper and lower chambers of the Boyden Chamber and measuring changes in transwell migration. […]

[5] = test system: morphine-dependent antinociception in PLCβ3 −/− mice; experiment: 55° C. tail-flick antinociception in PLCβ3 −/− mice; format: in vivo, mouse; conditions: 100 nmol i.c.v.; result in words
[6] = target: T1, Fαi1GDPβ1γ2 heterotrimer (UniProt P54311+P63212); experiment: Dissociation of Fαi1 from preformed Fαi1β1γ2 heterotrimer (flow cytometry); format: binding; conditions: result in words
T1 construct: made in house; host or cells: b-βγ: Sf9 insect cells
T1 sequence (P54311 whole entry): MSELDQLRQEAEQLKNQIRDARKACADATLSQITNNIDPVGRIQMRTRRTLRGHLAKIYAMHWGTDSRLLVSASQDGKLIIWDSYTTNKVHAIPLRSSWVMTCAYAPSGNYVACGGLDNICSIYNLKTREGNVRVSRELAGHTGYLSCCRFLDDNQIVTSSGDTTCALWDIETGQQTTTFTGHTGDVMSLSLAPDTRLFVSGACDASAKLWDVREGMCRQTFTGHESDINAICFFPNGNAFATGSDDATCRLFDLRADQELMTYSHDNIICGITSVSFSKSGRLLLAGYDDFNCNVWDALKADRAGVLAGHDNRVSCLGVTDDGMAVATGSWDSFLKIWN
T1 sequence (P63212 2-68 limits assumed): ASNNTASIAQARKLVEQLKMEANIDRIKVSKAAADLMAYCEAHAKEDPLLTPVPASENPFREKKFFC
Procedure: Assays were used to determine peptide effects on Gα-Gβγ interactions included competition and dissociation assays (Ghosh, et al. (2003) supra). […] To measure dissociation of Fan from b-Gβaγ2, 100 pM of Fa^ was incubated with 50 pM immobilized b-Gβ1γ2 at room temperature for 15-20 minutes. The fluorescence of bound Fαii subunit was measured, followed by the addition of a 200-fold excess of unlabeled Gcx±x or peptides and the amount of Fan remaining bound to the beads was measured at the indicated times.
The ability of peptides to dissociate a preformed hetero-trimer was assessed by comparing the rates of Fαi1 dissociation from Fαi1β1γ2 with excess unlabeled αi1 competitor (intrinsic dissocia-tion rate) and in the presence of a saturating concentration of peptide.

[7] = test system: differentiated HL60 cells; experiment: GM-CSF-induced chemotaxis of differentiated HL60 cells (Boyden chamber); format: cell-based, human; conditions: 10 μM compound, 1 μM GM-CSF; result in words
Procedure: as §1, §2

[8] = 250 mg/kg/day for two weeks, delivered by the NCI; cited from earlier work
[9] = test system: ATP-dependent Ca2+ increase in differentiated HL-60 neutrophils; experiment: ATP-dependent Ca2+ increase in differentiated HL-60 neutrophils; format: cell-based, human; conditions: result in words
Procedure: (Collins, et al. (1978) Proc. Natl. Acad. Sci. USA 75:2458; Collins, et al. (1979) J. Exp. Med. 149:969). Neutrophils were preloaded with fura-2 (1 μM), a fluorescent Ca^2+-sensitive indicator (Suh, et al. (1996) J. Biol. Chem. 271:32753), for 45 minutes, washed with HBSS and resuspended in 2 mL of indicator-free HBSS. An 140 μL aliquote of cells was added to a total of 2 mL HBSS. Fluorescence ratios were taken by dual excitation at 340 and 380 nm and emission at 510 nm. After a stable baseline was established, either DMSO or NSC119910 was added and incubated for 5 minutes. Subsequently, either fMLP or ATP agonists were added to activate release of Ca^2+ from intracellular stores.

Sequence of Gβ1γ2 (P54311 whole entry): as the sequence (P54311 whole entry) above
Sequence of Gβ1γ2 (P63212 2-68 limits assumed): as the sequence (P63212 2-68 limits assumed) above

Row | Structure (SMILES) | IC50 [1] | leftward shift / potentiation of morphine dose-response [2] | effect on β-AR-mediated recruitment of GRK2 to membranes [3] | effect on IL-8 regulated chemotaxis [4] | effect on morphine-dependent antinociception in PLCβ3 −/− mice [5] | promotion/acceleration of heterotrimer dissociation [6] | effect on GM-CSF-induced chemotaxis [7] | toxicity [8] | effect on ATP-induced [Ca^2+] increase [9]
1 | O=C(O)C1CCCCC1c1c2ccc(=O)cc-2oc2cc(O)ccc12 (centres unmarked) [Compound M119B] | > 300 µM |  |  |  |  |  |  |  | 
2 | O=C(O)C1CCCCC1c1c2ccc(=O)c(O)c-2oc2c(O)c(O)ccc12 (centres unmarked) [Compound M119, cyclohexanecarboxylic acid, 2-(4,5,6-trihydroxy-3-oxo-3H-xanthen-9-yl)-(9cl)] |  | 10 fold | reduced | blocked | no effect | did not promote dissociation | Neither M119 nor gallein blocked | no reported overt evidence of toxicity | not significantly suppressed
3 | O=C(O)c1ccccc1-c1c2ccc(=O)c(O)c-2oc2c(O)c(O)ccc12 (racemic) [Gallein] |  |  |  | blocked |  |  | Neither M119 nor gallein blocked |  | 
